From patent EP2676954A1, “Heterocyclyl-substituted-phenyl derivatives as vasodilators” (Laboratorios del Dr. Esteve S.A., priority 2012, dated 2013)

System: Male Wistar rats
Test: Penile erection test (penile erection score) in conscious rats
Type: in vivo
Settings: after local injection (animal studies)
Method: Male Wistar rats aged from 8 to 10 weeks old (250 - 320 g) were used in these studies. Animals were housed in groups of five, provided with food and water ad libitum and kept in controlled laboratory conditions with the temperature maintained at 22 ± 2 °C and light in 12 h cycles (on at 06:00 h and off at 18:00 h). Experiments were carried out in a soundproof and air-regulated experimental room. The number of rats ranged from 5 to 34 per group in each individual experiment.
Drugs used for treatments were: Compound 1, Compound 2, Compound 3 and Alprostadil.
Male Wistar rats received local injections (intrapenis injections) or topical administrations of test substances and penile erection was quantified (penile erection score) from 15 to 30 min after local drug injection and from 5 to 60 min after topical drug administration. The magnitude of penile erection is determined by penile erection score. The Baseline was determined based on vehicle injection. […]
For evaluating the penile erection after both types of administration, a qualitative score method was used, where 0 = no effect, 1 = slight effect, 2 = some effect without exposure of the penis, and 3 = clear effect with exposure of the penis. The reading times for the local injection were 15 and 30 minutes, and for the topical application were 5, 15, 30, and 60 minutes.
Data are expressed as Mean±SEM. […]

For Cc1nn(C)c(C)c1-c1cccc(CCN(C)C)c1 [Compound 2, Dimethyl-{2-[3-(1,3,5-trimethyl-1H-pyrazol-4-yl)-phenyl]-ethyl}-amine], the penile erection was “cause penile erection in the absence of sexual stimulation”.
Cc1nn(C)c(C)c1-c1ccc(O)c(CCN(C)C)c1 [Compound 1, 2-(2-(Dimethylamino)ethyl)-4-(1,3,5-trimethyl-1H-pyrazol-4-yl)phenol] was tested, and the penile erection was “cause penile erection in the absence of sexual stimulation”.
